# Results taken from US8618082B2, “Lupeol anti-tumor agent and uses thereof” (Wisconsin Alumni Research Foundation, priority 2004, dated 2013).
# Legend:
# [1] = system: IKKα protein; assay: TPA-induced activation of IKKα (western blot); assay type: in vivo, mouse; details: TPA topical
# Method: FIG. 6. Inhibitory effect of Lupeol on TPA-induced activation of IKKα, and phosphorylation and degradation of IκBα in CD-1 mice: At different times after treatment, the animals were sacrificed, epidermal cytosolic was prepared, and protein expression was determined. Equal loading was confirmed by stripping the immunoblot and reprobing it for β-actin. The immunoblots shown here are representative of three independent experiments with similar results. The values above each lane indicate relative density of the band normalized to β-actin.
# (§1) The animals were shaved on the dorsal side of the skin, divided into four groups and treated topically on the shaved area with either 0.4 ml vehicle (acetone), or TPA (3.2 nmol/0.4 ml acetone/animal, v/v), or Lupeol (1 or 2 mg/0.2 ml acetone/animal, w/v) followed 30 min later with TPA (3.2 nmol/0.2 ml acetone/animal). […]
# Epidermis from the whole skin was separated as described earlier (Katiyar et al., 1999) and was homogenized in ice-cold lysis buffer [50 mM Tris-HCl, 150 mM NaCl, 1 mM EGTA, 1 mM EDTA, 20 mM NaF, 100 mM Na3VO4, 0.5% NP-40, 1% Triton X-100, 1 mM PMSF (pH 7.4)] with freshly added protease inhibitor cocktail, Protease Inhibitor Cocktail Set III (Calbiochem, La Jolla, Calif., USA). […] The protein content in the lysates was measured by DC BioRad assay (BioRad Laboratories, Hercules, Calif.) as per the manufacturer's protocol. […]
# [2] = system: catalytic (p110) and regulatory (p85) subunit of PI3K; assay: TPA-induced epidermal PI3K expression (western blot); assay type: in vivo, mouse
# Method: (§2) FIG. 5. Inhibitory effect of Lupeol on TPA-induced activation of PI3K and phosphorylation of Akt in CD-1 mice: At different times after treatment, the animals were sacrificed, epidermal protein lysate was prepared, and PI3K and phosphorylated (Thr^308) Akt and total Akt protein expression were determined. The immunoblots shown here are representative of three independent experiments with similar results. The values above each lane indicate relative density of the band normalized to β-actin.
# (§3) The animals were shaved on the dorsal side of the skin, divided into four groups and treated topically on the shaved area with either 0.4 ml vehicle (acetone), or TPA (3.2 nmol/0.4 ml acetone/animal, v/v), or Lupeol (1 or 2 mg/0.2 ml acetone/animal, w/v) followed 30 min later with TPA (3.2 nmol/0.2 ml acetone/animal). Animals were sacrificed at different times point i.e. 6, 12, 24 and 48 h post TPA treatment. The epidermis was separated from the whole skin and homogenized in 0.1 M Tris-HCl buffer (pH 7.2) using a Polytron tissue homogenizer (Brinkmann Instruments, Westbury, N.Y., USA) at 100,000×g supernatant, and microsomal fractions were prepared as described earlier (Katiyar and Mukhtar, 1997). The sample of 6 h treatment group was used to assess the ODC activity as this time point has previously been shown for optimal induction of the enzyme (Katiyar er al., 1996).
# (§4) Epidermis from the whole skin was separated as described earlier (Katiyar et al., 1999) and was homogenized in ice-cold lysis buffer [50 mM Tris-HCl, 150 mM NaCl, 1 mM EGTA, 1 mM EDTA, 20 mM NaF, 100 mM Na3VO4, 0.5% NP-40, 1% Triton X-100, 1 mM PMSF (pH 7.4)] with freshly added protease inhibitor cocktail, Protease Inhibitor Cocktail Set III (Calbiochem, La Jolla, Calif., USA). The homogenate was then centrifuged at 14,000×g for 25 minutes at 4° C. and the supernatant (total cell lysate) was collected, aliquoted and stored at −80° C. For the preparation of nuclear lysate, 0.2 g of the epidermis was homogenized in 1 ml of ice-cold phosphate-buffered saline (pH 7.6) and centrifuged at 12,000×g for 5 min at 4° C. […] The protein content in the lysates was measured by DC BioRad assay (BioRad Laboratories, Hercules, Calif.) as per the manufacturer's protocol.
# (§5) For western blot analysis, 40 μg of the protein was resolved over 8-12% polyacrylamide gels and transferred to a nitrocellulose membrane. […] This was followed by incubation with anti-mouse or anti-rabbit secondary antibody horse-radish peroxidase (Amersham Life Sciences, Inc., USA) for 1 h and then washed several times and detected by chemiluminescence ECL kit, (Amersham Life Sciences, Inc., USA) and autoradiography using XAR-5 film obtained from Eastman Kodak Co. (Rochester, N.Y., USA). […]
# [3] = system: epidermal iNOS protein; assay: TPA-induced epidermal iNOS protein expression (western blot); assay type: in vivo, mouse; details: TPA alone topical
# Method: (§6) FIG. 4. Inhibitory effect of Lupeol on TPA-induced epidermal ODC, iNOS and COX-2 protein expression in CD-1 mice: At different times after treatment, the animals were sacrificed, epidermal protein lysate was prepared, and ODC and COX-2 protein expression were determined. Equal loading of protein was confirmed by stripping the immunoblot and reprobing it for β-actin. The immunoblots shown here are representative of three independent experiments with similar results. The values above each lane indicate relative density of the band normalized to β-actin.
# as §1, with “acetone/animal). Animals were sacrificed at different times point i.e. 6, 12, 24 and 48 h post TPA treatment.” for “acetone/animal).”
# (§7) Epidermis from the whole skin was separated as described earlier (Katiyar et al., 1999) and was homogenized in ice-cold lysis buffer [50 mM Tris-HCl, 150 mM NaCl, 1 mM EGTA, 1 mM EDTA, 20 mM NaF, 100 mM Na3VO4, 0.5% NP-40, 1% Triton X-100, 1 mM PMSF (pH 7.4)] with freshly added protease inhibitor cocktail, Protease Inhibitor Cocktail Set III (Calbiochem, La Jolla, Calif., USA). […] The protein content in the lysates was measured by DC BioRad assay (BioRad Laboratories, Hercules, Calif.) as per the manufacturer's protocol.
# as §5
# [4] = system: CD-1 mouse skin; assay: TPA-induced cutaneous edema, skin punch weight; assay type: in vivo; details: TPA alone, 3.2 nmole/mouse topical
# Method: Studies from the inventors' laboratory and by other have shown that TPA application to mouse skin results in cutaneous edema (Katiyar et at, 1996; Liang et at, 2002). In the present study, the inventors evaluated the protective effects of topical application of Lupeol in TPA-mediated cutaneous edema in CD-1 mouse. The inventors tested four doses 0.25, 0.5, 1 and 2 mg of Lupeol per animal in the inventors' preliminary studies. […] The CD-1 mice were topically treated with Lupeol (1 and 2 mg/mouse) and 30 min later were topically treated with TPA (3.2 nmole/mouse). […] At least four determinations were made at different dorsal skin sites per mouse in each group. The data represents the mean±SE of eight mice (*p<0.01 vs TPA).
# as §3
# To assess the inhibitory effect of pre-application of Lupeol on TPA-induced edema, 1 cm-diameter punches of skin from vehicle-, Lupeol-, TPA- or Lupeol- and TPA-treated mice were removed, made free of fat pads, and weighed immediately. After drying for 24 h at 50° C., the skin punches were reweighed, and the loss of water content was determined. The difference in the amount of water gain between the control (vehicle treated) and TPA treated represented the extent of edema induced by TPA, whereas that between the control vehicle and Lupeol plus TPA represented the inhibitory effect of Lupeol. For the hyperplasia study, skin was removed, fixed in 10% formalin, and embedded in paraffin. Vertical sections (5 μm) were cut, mounted on a glass slide, and stained with hematoxylin and eosin.
# [5] = system: epidermal ODC protein; assay: TPA-induced epidermal ODC protein expression (western blot); assay type: in vivo, mouse; details: TPA topical
# Method: as §6
# as §1, with “acetone/animal). Animals were sacrificed at different times point i.e. 6, 12, 24 and 48 h post TPA treatment.” for “acetone/animal).”
# as §7, §5
# [6] = system: epidermal COX-2 protein; assay: TPA-induced epidermal COX-2 protein expression (western blot); assay type: in vivo, mouse; details: TPA topical, 6 h post treatment
# Method: as §6, §3, §4, §5
# [7] = system: Akt; assay: TPA-induced phosphorylation of Akt at Thr308 (western blot); assay type: in vivo, mouse; details: TPA, 6 h post treatment
# Method: as §2
# as §1, with “acetone/animal). Animals were sacrificed at different times point i.e. 6, 12, 24 and 48 h post TPA treatment.” for “acetone/animal).”
# as §7, §5
compound,measurement,setting,value
"CCCCCCCCCCCCCC(=O)O[C@@H]1[C@@H](C)[C@@]2(O)[C@@H](C=C(CO)C[C@]3(O)C(=O)C(C)=C[C@@H]23)[C@@H]2C(C)(C)[C@]12OC(C)=O [TPA, 12-O-tetradecanoyl-phorbol acetate, reference compound]",increase in the expression of IKKα protein,[1],5.5 fold
same,increase in expression of catalytic (p110) and regulatory (p85) subunit of PI3K,[2]; TPA topical,2 to 3 fold
same,induction in the expression of catalytic subunit p110,"[2]; TPA, 6 h post treatment",3 fold
same,increase in iNOS protein expression vs vehicle treated controls,[3],5 fold
same,Skin punch weight 24 hrs,[4],23.5 ± 0.5 mg/cm2
same,Skin punch weight 48 hrs,[4],25.5 ± 0.75 mg/cm2
same,increase in epidermal ODC protein level vs acetone treated control,[5],4 fold
same,maximum increase in epidermal COX-2 protein expression vs acetone control,[6],2.7 fold
same,maximum phosphorylation of Akt,[7],3.8 fold
